# From ChEMBL document CHEMBL1127565, “Identification of two hydrophobic patches in the active-site cavity of human carbonic anhydrase II by solution-phase and solid-state studies and their use in the development of tight-binding inhibitors” (J Med Chem, 1994)
# Molecular target: Carbonic anhydrase 2 (Homo sapiens, UniProt P00918)
# Description: Dissociation constant against human Carbonic anhydrase II (HCA II)
row,Compound,Kd [nM]
1,NS(=O)(=O)c1ccc(C(=O)NCc2cccc3ccccc23)cc1,0.6
2,NS(=O)(=O)c1ccc(C(=O)NCC2CCCCC2)cc1,1.1
3,CCCCCCCCNC(=O)c1ccc(S(N)(=O)=O)cc1,2.5
4,NS(=O)(=O)c1ccc(C(=O)NCC23CC4CC(CC(C4)C2)C3)cc1,2.1
5,NS(=O)(=O)c1ccc(C(=O)N[C@@H](Cc2ccccc2)C(=O)NCC(=O)NCC(=O)O)cc1,21
6,NS(=O)(=O)c1ccc(C(=O)NCC(=O)NCC(=O)OCc2ccccc2)cc1,71
7,CCCCc1ccc(COC(=O)CNC(=O)CNC(=O)CNC(=O)c2ccc(S(N)(=O)=O)cc2)cc1,53
8,NS(=O)(=O)c1ccc(C(=O)NCc2ccc([N+](=O)[O-])cc2)cc1,2
9,NS(=O)(=O)c1ccc(C(=O)N[C@@H](Cc2ccccc2)C(=O)NCC(=O)NCC(=O)OCc2ccccc2)cc1,5.3
10,NS(=O)(=O)c1ccc(C(=O)NCc2cccnc2)cc1,4
11,NS(=O)(=O)c1ccc(C(=O)NCC(F)(F)C(F)(F)C(F)(F)C(F)(F)C(F)(F)C(F)(F)C(F)(F)F)cc1,0.3
12,NS(=O)(=O)c1ccc(C(=O)NC(=O)c2ccco2)cc1,5.6
13,CN(C)c1ccc(CNC(=O)c2ccc(S(N)(=O)=O)cc2)cc1,1.4
14,NS(=O)(=O)c1ccc(C(=O)NCC(=O)NCC(=O)NCC(=O)NCC(=O)OCc2ccccc2)cc1,210
15,NS(=O)(=O)c1ccc(C(=O)N[C@H](C(=O)NCC(=O)NCC(=O)OCc2ccccc2)c2ccccc2)cc1,0.9
16,NS(=O)(=O)c1ccc(C(=O)NCc2ccccn2)cc1,4.3
17,Cc1ccccc1CNC(=O)c1ccc(S(N)(=O)=O)cc1,2.2
18,NS(=O)(=O)c1ccc(C(=O)NCSc2ccccc2)cc1,1.7
19,NS(=O)(=O)c1ccc(C(=O)NCc2ccc(F)c(F)c2F)cc1,2.3
20,NS(=O)(=O)c1ccc(C(=O)NCc2ccncc2)cc1,1.4
21,CNC(=O)c1ccc(S(N)(=O)=O)cc1,150
22,NS(=O)(=O)c1ccc(C(=O)NCC(=O)NCC(=O)NCC(=O)OCc2ccccc2)cc1,75
23,NC(=O)c1ccc(S(N)(=O)=O)cc1,120
24,NS(=O)(=O)c1ccc(C(=O)N[C@H](Cc2ccccc2)C(=O)NCC(=O)NCC(=O)OCc2ccccc2)cc1,36
